# Source: ChEMBL document CHEMBL4840338, “Cudraflavone C from Artocarpus hirsutus as a Promising Inhibitor of Pathogenic, Multidrug-Resistant S. aureus, Persisters, and Biofilms: A New Insight into a Rational Explanation of Traditional Wisdom” (J Nat Prod, 2021)
# What was measured:
# [1] = Cytotoxicity against African green monkey Vero cells incubated for 72 hrs by MTT assay; assay type: cell-based; details: chlorocebus sabaeus
# [2] = system: Pseudomonas aeruginosa; experiment: Antibacterial activity against Pseudomonas aeruginosa ATCC 27853 assessed as bacterial growth inhibition incubated for 16 to 18 hrs by broth microdilution method; assay type: functional; details: time 16-18 hrs
# [3] = system: Acinetobacter baumannii; experiment: Antibacterial activity against Acinetobacter baumannii BAA 1605 assessed as bacterial growth inhibition incubated for 16 to 18 hrs by broth microdilution method; assay type: functional; details: time 16-18 hrs
# [4] = system: Klebsiella pneumoniae; experiment: Antibacterial activity against Klebsiella pneumoniae BAA-1705 assessed as bacterial growth inhibition incubated for 16 to 18 hrs by broth microdilution method; assay type: functional; details: time 16-18 hrs
# [5] = system: Enterococcus; experiment: Antibacterial activity against Enterococcus NR 31884 assessed as bacterial growth inhibition incubated for 16 to 18 hrs by broth microdilution method; assay type: functional; details: time 16-18 hrs
# [6] = system: Acinetobacter baumannii; experiment: Antibacterial activity against Acinetobacter baumannii BAA-1605 ssessed as bacterial growth inhibition in presence of outermembrane permeabilizer, PMBN incubated for 16 to 18 hrs by broth microdilution method; assay type: functional; details: time 16-18 hrs
# [7] = system: Staphylococcus aureus; experiment: Antibacterial activity against methicillin-resistant Staphylococcus aureus NRS 10192 assessed as bacterial growth inhibition incubated for 16 to 18 hrs by broth microdilution method; assay type: functional; details: time 16-18 hrs
# [8] = system: Staphylococcus aureus; experiment: Antibacterial activity against methicillin-resistant Staphylococcus aureus NRS 10186 assessed as bacterial growth inhibition incubated for 16 to 18 hrs by broth microdilution method; assay type: functional; details: time 16-18 hrs
# [9] = system: Staphylococcus aureus; experiment: Antibacterial activity against methicillin-resistant Staphylococcus aureus NRS 10194 assessed as bacterial growth inhibition incubated for 16 to 18 hrs by broth microdilution method; assay type: functional; details: time 16-18 hrs
# [10] = system: Enterococcus; experiment: Antibacterial activity against vancomycin-susceptible Enterococcus NR 31887 assessed as bacterial growth inhibition incubated for 16 to 18 hrs by broth microdilution method; assay type: functional; details: time 16-18 hrs
# [11] = system: Enterococcus; experiment: Antibacterial activity against vancomycin-resistant Enterococcus NR 31903 assessed as bacterial growth inhibition incubated for 16 to 18 hrs by broth microdilution method; assay type: functional; details: time 16-18 hrs
# [12] = system: Enterococcus; experiment: Antibacterial activity against vancomycin-resistant Enterococcus NR 31909 assessed as bacterial growth inhibition incubated for 16 to 18 hrs by broth microdilution method; assay type: functional; details: time 16-18 hrs
# [13] = system: Staphylococcus aureus; experiment: Bactericidal activity against Staphylococcus aureus ATCC 29213 assessed as reduction in bacterial load at 1X MIC preincubated for 6 hrs followed by subculturing on TSA plate for 18 to 20 hrs by time-kill assay; assay type: functional; details: time 24-26 hrs
# [14] = system: Staphylococcus aureus; experiment: Antibiofilm activity against Staphylococcus aureus ATCC 29213 assessed as reduction in preformed bacterial biofilm at 1XMIC incubated for 24 hrs by crystal violet staining based microtiter plate reader assay; assay type: functional
# [15] = system: Staphylococcus aureus; experiment: Antibacterial activity against Staphylococcus aureus ATCC 29213 assessed as fractional inhibitory concentration in presence of ceftazidime incubated for 24 hrs by checkerboard assay; assay type: functional
# [16] = system: Staphylococcus aureus; experiment: Antibacterial activity against Staphylococcus aureus ATCC 29213 assessed as fractional inhibitory concentration in presence of linezolid incubated for 24 hrs by checkerboard assay; assay type: functional
# [17] = system: Staphylococcus aureus; experiment: Antibacterial activity against Staphylococcus aureus ATCC 29213 assessed as fractional inhibitory concentration in presence of meropenem incubated for 24 hrs by checkerboard assay; assay type: functional
# [18] = system: Staphylococcus aureus; experiment: Bactericidal activity against Staphylococcus aureus ATCC 29213 assessed as reduction in bacterial load at 10X MIC preincubated for 1 hr followed by subculturing on TSA plate for 18 to 20 hrs by time-kill assay; assay type: functional; details: time 19-21 hrs
# [19] = system: Staphylococcus aureus; experiment: Antibacterial activity against Staphylococcus aureus ATCC 29213 assessed as bacterial growth inhibition in presence of daptomycin incubated for 24 hrs by checkerboard assay; assay type: functional
# [20] = system: Staphylococcus aureus; experiment: Antibacterial activity against Staphylococcus aureus ATCC 29213 assessed as bacterial growth inhibition in presence of gentamycin incubated for 24 hrs by checkerboard assay; assay type: functional
# [21] = system: Staphylococcus aureus; experiment: Antibacterial activity against Staphylococcus aureus ATCC 29213 assessed as bacterial growth inhibition in presence of levofloxacin incubated for 24 hrs by checkerboard assay; assay type: functional
# [22] = system: Staphylococcus aureus; experiment: Antibacterial activity against Staphylococcus aureus ATCC 29213 assessed as bacterial growth inhibition in presence of linezolid incubated for 24 hrs by checkerboard assay; assay type: functional
# [23] = system: Staphylococcus aureus; experiment: Antibacterial activity against Staphylococcus aureus ATCC 29213 assessed as bacterial growth inhibition in presence of meropenem incubated for 24 hrs by checkerboard assay; assay type: functional
structure (smiles),measurement,setting,value
CC(C)=CCc1c(O)cc2oc(-c3ccc(O)cc3O)c(CC=C(C)C)c(=O)c2c1O [CUDRAFLAVONE C],CC50 at 72 h,[1],50 µg/mL
same,MIC,[2],> 64 µg/mL
same,MIC,[3],> 64 µg/mL
same,MIC,[4],> 64 µg/mL
same,MIC,[5],4 µg/mL
same,MIC,[6],4 µg/mL
same,MIC,[7],4 µg/mL
same,MIC,[8],4 µg/mL
same,MIC,[9],4 µg/mL
same,MIC,[10],4 µg/mL
same,MIC,[11],4 µg/mL
same,MIC,[12],4 µg/mL
same,Activity,[13],4 log10CFU/ml
same,inhibition (INH),[14],8%
same,FIC,[15],1.5
same,FIC,[16],1.5
same,FIC,[17],1.5
same,Activity,[18],5 log10CFU/ml
same,MIC,[19],2 µg/mL
same,MIC,[20],0.06 µg/mL
same,MIC,[21],2 µg/mL
same,MIC,[22],2 µg/mL
same,MIC,[23],2 µg/mL
